The values that follow come from ChEMBL document CHEMBL1201862, “PubChem BioAssay data set” (2004).

Activity calls are given as the source filed them.

Assay [1] deals with T1, RNA-binding protein pos-1 (Caenorhabditis elegans, UniProt G5EF15).
T1 sequence (G5EF15 whole entry): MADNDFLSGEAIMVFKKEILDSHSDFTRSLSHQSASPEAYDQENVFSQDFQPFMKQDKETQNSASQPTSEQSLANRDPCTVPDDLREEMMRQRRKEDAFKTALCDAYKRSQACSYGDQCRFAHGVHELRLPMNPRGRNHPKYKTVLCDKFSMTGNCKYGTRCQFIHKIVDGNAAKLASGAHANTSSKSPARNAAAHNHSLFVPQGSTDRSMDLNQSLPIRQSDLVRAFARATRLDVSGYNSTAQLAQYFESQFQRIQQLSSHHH
Description: inhibitors of POS-1/mex-3 RNA binding, dose response, biochemical, fluorescence polarization (AID 1964). (Polarisation of emitted light reports the rotation of a fluorescent probe.)

The target in another assay is Keap1/Nrf2 (Homo sapiens, UniProt Q14145). The assay can be described thus: Keap1-Nrf2 protein-protein interaction inhibitors, dose response, biochemical, fluorescence polarization, cherry-picked samples (AID 588683).
The target in a further assay is ORF 73 (Human herpesvirus 8, UniProt O40947). The assay can be described thus: inhibitors of C-LANA binding to LBS DNA, dose response, biochemical, fluorescence polarization, cherry-picked samples (AID 504725).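 Further: fluorescence polarization of a labeled DNA duplex reporting LANA DNA binding; potency is for inhibitors that block LANA binding to the DNA.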 On the set-up: species or system Human gammaherpesvirus 8.
Assay [2] has as its target T2, Heat shock factor protein 1 (Mus musculus, UniProt P38532).
T2 sequence (P38532 whole entry): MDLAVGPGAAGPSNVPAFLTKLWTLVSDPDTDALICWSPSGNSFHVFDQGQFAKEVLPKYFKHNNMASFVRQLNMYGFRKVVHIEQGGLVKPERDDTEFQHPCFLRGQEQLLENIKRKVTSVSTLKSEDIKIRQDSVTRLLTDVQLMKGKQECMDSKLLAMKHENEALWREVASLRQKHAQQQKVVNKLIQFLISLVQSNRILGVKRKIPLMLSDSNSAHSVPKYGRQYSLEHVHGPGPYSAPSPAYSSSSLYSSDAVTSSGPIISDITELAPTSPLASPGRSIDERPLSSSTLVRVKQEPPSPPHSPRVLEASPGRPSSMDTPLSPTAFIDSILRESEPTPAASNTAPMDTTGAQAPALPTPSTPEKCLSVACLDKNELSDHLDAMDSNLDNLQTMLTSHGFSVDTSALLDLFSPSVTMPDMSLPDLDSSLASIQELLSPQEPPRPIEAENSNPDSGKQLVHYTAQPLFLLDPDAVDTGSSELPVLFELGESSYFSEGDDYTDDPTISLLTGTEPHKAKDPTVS
The assay can be described thus: HSF1 potentiators in luciferase reporter cells, confirmation, cell-based, NIH3T3, luminescence, dose retest (AID 435004).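 Further: stress induced by proteasome inhibitor MG132 added 30 min after compound; luciferase reporter driven by HSF1 response element in NIH3T3 cells; actives raise luminescence as potentiators of the MG132 stress response.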 In kind it is functional. Background: Reporter assays use an easily measured gene product as a stand-in for the process of interest.

Keap1/Nrf2, sequence (Q16236 whole entry): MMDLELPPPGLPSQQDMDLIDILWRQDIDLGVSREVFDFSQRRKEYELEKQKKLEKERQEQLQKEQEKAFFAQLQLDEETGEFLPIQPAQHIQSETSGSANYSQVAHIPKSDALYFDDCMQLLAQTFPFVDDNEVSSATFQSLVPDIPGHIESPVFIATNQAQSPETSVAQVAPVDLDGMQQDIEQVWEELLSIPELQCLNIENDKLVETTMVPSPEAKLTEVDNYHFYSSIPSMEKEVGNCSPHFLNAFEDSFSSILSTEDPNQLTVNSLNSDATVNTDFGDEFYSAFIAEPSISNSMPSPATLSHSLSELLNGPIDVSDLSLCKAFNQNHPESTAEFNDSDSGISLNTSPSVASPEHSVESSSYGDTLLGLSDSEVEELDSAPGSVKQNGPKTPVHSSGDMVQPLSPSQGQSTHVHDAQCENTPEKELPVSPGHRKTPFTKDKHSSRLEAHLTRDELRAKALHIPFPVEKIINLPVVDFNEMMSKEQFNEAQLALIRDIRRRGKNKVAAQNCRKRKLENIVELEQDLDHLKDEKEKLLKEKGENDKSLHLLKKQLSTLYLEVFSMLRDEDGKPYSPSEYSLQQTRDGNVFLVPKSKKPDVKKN
Keap1/Nrf2, sequence (Q14145 whole entry): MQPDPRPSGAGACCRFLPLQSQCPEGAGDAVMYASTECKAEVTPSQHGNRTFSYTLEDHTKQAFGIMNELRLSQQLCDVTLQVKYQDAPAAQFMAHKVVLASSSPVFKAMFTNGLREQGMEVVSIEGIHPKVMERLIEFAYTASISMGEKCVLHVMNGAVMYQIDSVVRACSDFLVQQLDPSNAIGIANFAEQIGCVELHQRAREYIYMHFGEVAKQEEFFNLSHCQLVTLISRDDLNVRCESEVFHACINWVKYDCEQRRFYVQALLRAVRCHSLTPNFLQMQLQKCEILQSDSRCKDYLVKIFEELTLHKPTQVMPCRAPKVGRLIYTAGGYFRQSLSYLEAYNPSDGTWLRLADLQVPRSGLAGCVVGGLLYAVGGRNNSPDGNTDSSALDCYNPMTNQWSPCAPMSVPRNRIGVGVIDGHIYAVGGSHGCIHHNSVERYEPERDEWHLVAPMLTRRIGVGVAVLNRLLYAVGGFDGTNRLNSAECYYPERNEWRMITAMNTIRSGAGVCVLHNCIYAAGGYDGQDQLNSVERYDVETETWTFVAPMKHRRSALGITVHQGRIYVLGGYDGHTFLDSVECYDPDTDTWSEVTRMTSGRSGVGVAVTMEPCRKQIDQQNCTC
ORF 73, sequence (O40947 whole entry): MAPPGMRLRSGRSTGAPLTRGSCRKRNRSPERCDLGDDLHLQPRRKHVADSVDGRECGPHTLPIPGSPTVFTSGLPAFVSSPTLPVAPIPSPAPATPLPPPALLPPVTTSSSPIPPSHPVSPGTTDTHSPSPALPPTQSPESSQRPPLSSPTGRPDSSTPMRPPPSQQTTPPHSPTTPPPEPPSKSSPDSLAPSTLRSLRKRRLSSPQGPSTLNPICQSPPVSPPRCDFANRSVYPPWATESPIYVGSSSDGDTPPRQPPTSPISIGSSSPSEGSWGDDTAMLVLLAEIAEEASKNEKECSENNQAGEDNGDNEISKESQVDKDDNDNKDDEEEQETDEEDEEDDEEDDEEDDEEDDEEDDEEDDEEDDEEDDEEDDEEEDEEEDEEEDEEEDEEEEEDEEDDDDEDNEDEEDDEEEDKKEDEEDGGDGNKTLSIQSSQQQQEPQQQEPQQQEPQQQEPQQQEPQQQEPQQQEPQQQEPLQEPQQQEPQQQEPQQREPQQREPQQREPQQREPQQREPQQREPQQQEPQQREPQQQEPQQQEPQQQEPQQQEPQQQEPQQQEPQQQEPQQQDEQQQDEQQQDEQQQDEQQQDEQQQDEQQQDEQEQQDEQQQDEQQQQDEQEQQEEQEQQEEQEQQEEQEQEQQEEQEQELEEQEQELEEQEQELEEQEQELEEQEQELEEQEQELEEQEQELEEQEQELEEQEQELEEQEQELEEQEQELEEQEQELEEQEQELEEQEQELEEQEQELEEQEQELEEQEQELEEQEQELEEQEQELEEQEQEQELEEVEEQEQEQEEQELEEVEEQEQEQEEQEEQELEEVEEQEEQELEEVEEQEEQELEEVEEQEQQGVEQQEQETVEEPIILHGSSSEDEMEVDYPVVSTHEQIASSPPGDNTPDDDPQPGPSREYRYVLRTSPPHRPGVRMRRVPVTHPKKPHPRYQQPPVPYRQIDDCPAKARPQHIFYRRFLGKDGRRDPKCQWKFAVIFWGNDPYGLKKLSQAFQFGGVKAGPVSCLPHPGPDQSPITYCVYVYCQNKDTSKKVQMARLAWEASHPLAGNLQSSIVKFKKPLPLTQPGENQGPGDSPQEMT

For `c1ccc2nc3cc4[nH]cnc4cc3nc2c1`, the EC50 (usually the midpoint of the concentration-response curve) in assay [1] is 7.59 µM (inconclusive); in assay [2], 15.5 µM (active). Moreover, the AC50 (in general, the midpoint of the concentration-response curve, whichever way the signal moves) is 10.4 µM (active) on Keap1/Nrf2 and 7.45 µM (active) at ORF 73.
